From ChEMBL document CHEMBL5537151, “Design, synthesis and bioactivity evaluation of novel fusion peptides and their CPT conjugates inducing effective anti-tumor responses on HER2 positive tumors” (Eur J Med Chem, 2024)
The source made the active and inactive calls. The rule behind the calls is not given here. Peptide text beside a SMILES is read from it. * marks the point of attachment. X1 = CCC1(C(=O)OCCS*)C(=O)OCc2c1cc1n(c2=O)Cc2cc3ccccc3nc2-1

Experiments:
SK-BR-3 [1] = assay: Antitumor activity against human SK-BR-3 cells xenografted in nude mouse assessed as inhibition of tumor growth at 8 umol/kg, iv administered every 3 days for 14 days and measured every 2 days by vernier caliper analysis; type: functional, organism-based; conditions: dose 8.0 µmol/kg, time 14.0 day
[2] = Drug release in human SK-BR-3 cells assessed as cathepsin-mediated SMAC polypeptide release at 10 uM incubated for 6 hrs by FITC/Lysotracker red dye based laser confocal microscopic analysis; type: ADME, cell-based; conditions: sk-br-3, 6 h
[3] = Toxicity in nude mouse xenografted with human SK-BR-3 cells assessed as change in alkaline phosphatase level at 8 umol/kg, iv administered every 3 days for 14 days; type: organism-based; conditions: in vivo, 336 h, dose 8 µmol/kg, time 14 day
[4] = Drug release in human SK-BR-3 cells assessed as cathepsin-mediated camptothecin release by measuring increase in blue fluorescence at 10 uM incubated for 6 hrs by FITC/Lysotracker red dye based laser confocal microscopic analysis; type: ADME, cell-based; conditions: sk-br-3, 6 h
[5] = Toxicity in nude mouse xenografted with human SK-BR-3 cells assessed as cell necrosis in spleen at 8 umol/kg, iv administered every 3 days for 14 days by H and E staining based analysis; type: organism-based; conditions: in vivo, 336 h, dose 8 µmol/kg, time 14 day
[6] = Toxicity in nude mouse xenografted with human SK-BR-3 cells assessed as increase in ALT level at 8 umol/kg, iv administered every 3 days for 14 days; type: organism-based; conditions: in vivo, 336 h, dose 8 µmol/kg, time 14 day
[7] = Drug localization in lysosome of human SK-BR-3 cells assessed as increase in green fluorescence of FITC at 10 uM incubated for 6 hrs by FITC/Lysotracker red dye based laser confocal microscopic analysis; type: ADME, subcellular; conditions: sk-br-3, 6 h
SK-BR-3 [8] = assay: Induction of apoptosis in human SK-BR-3 cells assessed as necrotic cells at 1 uM incubated for 24 hrs by Annexin V-FITC/PI staining based flow cytometry analysis (reference value: 1.49%); type: functional
[9] = Toxicity in nude mouse xenografted with human SK-BR-3 cells assessed as change in globulin level at 8 umol/kg, iv administered every 3 days for 14 days; type: organism-based; conditions: in vivo, 336 h, dose 8 µmol/kg, time 14 day
[10] = Toxicity in nude mouse xenografted with human SK-BR-3 cells assessed as inflammatory cell infiltration in liver at 8 umol/kg, iv administered every 3 days for 14 days by H and E staining based analysis; type: organism-based; conditions: in vivo, 336 h, dose 8 µmol/kg, time 14 day
[11] = Toxicity in nude mouse xenografted with human SK-BR-3 cells assessed as inflammatory cell infiltration in lung at 8 umol/kg, iv administered every 3 days for 14 days by H and E staining based analysis; type: organism-based; conditions: in vivo, 336 h, dose 8 µmol/kg, time 14 day
SK-BR-3 [12] = assay: Induction of apoptosis in human SK-BR-3 cells assessed as downregulation of cIAP1 protein expression at 2.5 to 5 uM incubated for 24 hrs by Western blot analysis; type: functional, cell-based; conditions: dose 2.5-5 µM
[13] = Toxicity in nude mouse xenografted with human SK-BR-3 cells assessed as inflammatory cell infiltration in spleen at 8 umol/kg, iv administered every 3 days for 14 days by H and E staining based analysis; type: organism-based; conditions: in vivo, 336 h, dose 8 µmol/kg, time 14 day
SK-BR-3 [14] = assay: Induction of apoptosis in human SK-BR-3 cells assessed as downregulation of XIAP protein expression at 2.5 uM by Western blot analysis; type: functional, cell-based; conditions: time 24-48 hrs, TDE = time-dependent effect
[15] = Toxicity in nude mouse xenografted with human SK-BR-3 cells assessed as inflammatory cell infiltration in heart at 8 umol/kg, iv administered every 3 days for 14 days by H and E staining based analysis; type: organism-based; conditions: in vivo, 336 h, dose 8 µmol/kg, time 14 day
[16] = Toxicity in nude mouse xenografted with human SK-BR-3 cells assessed as cell necrosis in kidney at 8 umol/kg, iv administered every 3 days for 14 days by H and E staining based analysis; type: organism-based; conditions: in vivo, 336 h, dose 8 µmol/kg, time 14 day
SK-BR-3 [17] = assay: Induction of apoptosis in human SK-BR-3 cells assessed as early apoptotic cells at 1 uM incubated for 24 hrs by Annexin V-FITC/PI staining based flow cytometry analysis (reference value: 2.80%); type: functional
[18] = Cytotoxicity against HER-negative human MCF-10A cells incubated for 48 hrs by CCK-8 assay; type: toxicity, cell-based
SK-BR-3 [19] = assay: Induction of apoptosis in human SK-BR-3 cells assessed as caspase-3 activation by measuring increase in green fluorescence incubated for 24 hrs by GreenNuc substrate/Hoechst 33342 staining based fluorescence microscopic analysis; type: functional, cell-based
[20] = biological target: T1, DNA topoisomerase 1 (Homo sapiens) (UniProt P11387); assay: Inhibition of topoisomerase 1 (unknown origin) assessed as reduction in DNA relaxation by measuring increase in supercoiled DNA level pretreated for 20 mins in water bath followed by pBR322 DNA addition and measured after 30 mins by agarose gel electrophoresis; conditions: dose 1-100 µM, time 50.0 min
T1 sequence (whole entry): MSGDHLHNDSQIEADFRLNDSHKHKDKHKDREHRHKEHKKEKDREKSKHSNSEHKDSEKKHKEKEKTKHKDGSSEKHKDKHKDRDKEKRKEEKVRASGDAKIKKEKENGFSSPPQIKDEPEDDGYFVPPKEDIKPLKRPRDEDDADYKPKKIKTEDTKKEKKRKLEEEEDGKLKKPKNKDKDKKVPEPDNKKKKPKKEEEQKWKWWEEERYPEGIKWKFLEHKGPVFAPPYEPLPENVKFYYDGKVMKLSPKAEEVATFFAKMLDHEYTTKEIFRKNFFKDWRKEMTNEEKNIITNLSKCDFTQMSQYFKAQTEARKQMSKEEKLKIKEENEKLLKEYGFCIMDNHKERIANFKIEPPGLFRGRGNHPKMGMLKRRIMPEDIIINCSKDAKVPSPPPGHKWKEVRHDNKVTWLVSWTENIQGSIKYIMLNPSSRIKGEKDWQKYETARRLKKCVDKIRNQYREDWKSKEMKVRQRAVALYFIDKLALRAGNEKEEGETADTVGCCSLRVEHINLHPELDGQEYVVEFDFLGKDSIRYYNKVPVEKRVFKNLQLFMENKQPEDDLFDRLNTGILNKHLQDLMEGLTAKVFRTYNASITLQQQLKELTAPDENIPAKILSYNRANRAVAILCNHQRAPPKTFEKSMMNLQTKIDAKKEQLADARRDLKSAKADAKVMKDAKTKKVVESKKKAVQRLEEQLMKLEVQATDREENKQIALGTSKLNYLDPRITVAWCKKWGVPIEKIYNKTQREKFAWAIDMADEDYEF

SK-BR-3 [21] = assay: Induction of apoptosis in human SK-BR-3 cells assessed as downregulation of XIAP protein expression at 2.5 to 5 uM incubated for 24 hrs by Western blot analysis; type: functional, cell-based; conditions: dose 2.5-5 µM
SK-BR-3 [22] = assay: Induction of apoptosis in human SK-BR-3 cells assessed as late apoptotic cells at 1 uM incubated for 24 hrs by Annexin V-FITC/PI staining based flow cytometry analysis (reference value: 1.11%); type: functional
[23] = Toxicity in nude mouse xenografted with human SK-BR-3 cells assessed as cell necrosis in heart at 8 umol/kg, iv administered every 3 days for 14 days by H and E staining based analysis; type: organism-based; conditions: in vivo, 336 h, dose 8 µmol/kg, time 14 day
[24] = Toxicity in nude mouse xenografted with human SK-BR-3 cells assessed as inflammatory cell infiltration in kidney at 8 umol/kg, iv administered every 3 days for 14 days by H and E staining based analysis; type: organism-based; conditions: in vivo, 336 h, dose 8 µmol/kg, time 14 day
NCI-N87 = assay: cells; conditions: Homo sapiens, NCI-N87, 48 h
Description: Cytotoxicity against HER-positive human NCI-N87 cells incubated for 48 hrs by CCK-8 assay

[25] = Toxicity in nude mouse xenografted with human SK-BR-3 cells assessed as change in albumin level at 8 umol/kg, iv administered every 3 days for 14 days; type: organism-based; conditions: in vivo, 336 h, dose 8 µmol/kg, time 14 day

In the case of CC[C@H](C)[C@H](NC(=O)[C@@H]1CCCN1C(=O)[C@@H](NC(=O)[C@H](C)N)C(C)C)C(=O)N[C@@H](C)C(=O)N[C@@H](CCC(N)=O)C(=O)N[C@@H](CCCCN)C(=O)N[C@@H](CSSCCOC(=O)C1(CC)C(=O)OCc2c1cc1n(c2=O)Cc2cc3ccccc3nc2-1)C(=O)NCC(=O)N[C@@H](Cc1ccccc1)C(=O)N[C@@H](CC(C)C)C(=O)NCC(=O)N[C@@H](CC(N)=O)C(=O)N1CCC[C@H]1C(=O)N[C@@H](CC(N)=O)C(=O)N[C@@H](Cc1c[nH]c2ccccc12)C(=O)NCC(=O)N[C@@H](CCCNC(=N)N)C(=O)N[C@@H](CO)C(=O)N[C@@H](Cc1c[nH]c2ccccc12)C(=O)N[C@@H](Cc1ccc(O)cc1)C(=O)N[C@@H](CC(N)=O)C(=O)N[C@@H](CCC(N)=O)C(=O)N[C@@H](CCCNC(=N)N)C(=O)N[C@@H](Cc1ccccc1)C(=O)N[C@@H](CCCCN)C(N)=O (stereo partly specified) (H-AVPIAQKC(X1)GFLGNPNWGRSWYNQRFK-NH2), the Activity (SK-BR-3 [1]) is reported as “Active”, the Drug metabolism [2] is reported as “Metabolite_Detected” and the Activity [3] is reported as “Non-Toxic”. For the same compound, the Drug metabolism [4] was “Metabolite_Detected”, the Activity [5] was “Non-Toxic” and the Activity [6] was “Toxic”. The Drug uptake [7] was “Active”, the Activity (SK-BR-3 [8]) was 3.42% and the Activity [9] was “Non-Toxic”. For the same compound, the Activity [10] was “Non-Toxic”, the Activity [11] was “Non-Toxic” and the Activity (SK-BR-3 [12]) was “Active”. For the same compound, the Activity [13] was “Non-Toxic”, the Activity (SK-BR-3 [14]) was “Tde” and the Activity [15] was “Non-Toxic”. For the same compound, the Activity [16] was “Non-Toxic”, the Activity (SK-BR-3 [17]) was 26% and the IC50 at 48 h [18] was 17.8 µM. For the same compound, the Activity (SK-BR-3 [19]) was “Active”, the inhibition [20] was “Dose-Dependent Effect” and the Activity (SK-BR-3 [21]) was “Active”. The Activity (SK-BR-3 [22]) was 9.46%, the Activity [23] was “Non-Toxic” and the Activity [24] was “Non-Toxic”. For the same compound, the IC50 (NCI-N87) was 1.58 µM and the Activity [25] was “Non-Toxic”.
